Measurements as given in patent publication US4396613A, “23-Ester derivatives of DMT and method of using same” (Eli Lilly and Company, priority 1981, dated 1983).
In brackets after ≈: the same amount, converted by molar mass.

Key:
[1] = test system: Staphylococcus aureus V41; assay: standard agar-dilution assay (MIC); format: cell-based; details: Staphylococcus aureus V41, penicillin-resistant strain, unit assumed
Description: (§1) The MIC's in Table II were determined by standard agar-dilution assays. The MIC's in Table III were obtained using a conventional broth-dilution microtiter test.
^b Penicillinresistant strain

[2] = test system: Staphylococcus aureus X400; assay: standard agar-dilution assay (MIC); format: cell-based; details: Staphylococcus aureus X400, methicillin-resistant strain, unit assumed
Description: as §1
^c Methicillinresistant-strain

[3] = test system: Haemophilus influenzae Holt; assay: standard agar-dilution assay (MIC); format: cell-based; details: ampicillin-sensitive strain, unit assumed
Description: as §1

[4] = test system: Haemophilus influenzae R252; assay: standard agar-dilution assay (MIC); format: cell-based; details: Haemophilus influenzae R252, ampicillin-resistant strain, unit assumed
Description: as §1

[5] = test system: Staphylococcus aureus S13E; assay: standard agar-dilution assay (MIC); format: cell-based; details: unit assumed
Description: as §1

[6] = test system: Staphylococcus aureus X1.1; assay: standard agar-dilution assay (MIC); format: cell-based; details: unit assumed
Description: as §1

[7] = test system: Staphylococcus epidermidis EPI1; assay: standard agar-dilution assay (MIC); format: cell-based; details: unit assumed
Description: as §1

[8] = test system: Staphylococcus epidermidis EPI2; assay: standard agar-dilution assay (MIC); format: cell-based; details: unit assumed
Description: as §1

Streptococcus Group 9960 = assay: standard agar-dilution assay (MIC); format: cell-based; details: unit assumed
Description: as §1

[9] = test system: Streptococcus Group D X66; assay: standard agar-dilution assay (MIC); format: cell-based; details: unit assumed
Description: as §1

[10] = test system: Streptococcus pyogenes C203; assay: standard agar-dilution assay (MIC); format: cell-based; details: unit assumed
Description: as §1

[11] = test system: Streptococcus pneumoniae Park I; format: cell-based; details: agar dilution, unit assumed
Description: as §1

Mycoplasma gallisepticum = assay: conventional broth-dilution microtiter test (MIC); format: cell-based; details: unit assumed
Description: as §1

Mycoplasma hyorhinis = assay: conventional broth-dilution microtiter test (MIC); format: cell-based; details: unit assumed
Description: as §1

[12] = test system: Pasteurella multocida 17E; assay: conventional broth-dilution microtiter test (MIC); format: cell-based; details: bovine isolate, unit assumed
Description: as §1

[13] = test system: Pasteurella multocida 60A; assay: conventional broth-dilution microtiter test (MIC); format: cell-based; details: avian isolate, unit assumed
Description: as §1

Staphylococcus aureus = assay: conventional broth-dilution microtiter test (MIC); format: cell-based; details: unit assumed
Description: as §1

Streptococcus sp. 80 = assay: conventional broth-dilution microtiter test (MIC); format: cell-based; details: unit assumed
Description: as §1

[14] = test system: Streptococcus pyogenes C203; assay: experimental infection in mice (ED50); format: in vivo; details: doses given 1 and 4 hours postinfection
Description: The 23-ester derivatives of DMT of this invention have shown in vivo antimicrobial activity against experimental bacterial infections caused by gram-positive bacteria. When two doses of test compound were admininstered to mice with experimental infections, the activity observed was measured as an ED50 value [effective dose in mg/kg to protect 50% of the test animals: see Warren Wick, et al., J. Bacteriol. 81, 233-235 (1961)].
^a mg/kg × 2; doses given 1 and 4 hours postinfection

Mycoplasma synoviae = assay: conventional broth-dilution microtiter test (MIC); format: cell-based; details: unit assumed
Description: as §1

| Structure (SMILES) | MIC [1] [µg/mL] | MIC [2] [µg/mL] | MIC [3] [µg/mL] | MIC [4] [µg/mL] | MIC [5] [µg/mL] | MIC [6] [µg/mL] | MIC [7] [µg/mL] | MIC [8] [µg/mL] | MIC (Streptococcus Group 9960) [µg/mL] | MIC [9] [µg/mL] | MIC [10] [µg/mL] | MIC [11] [µg/mL] | MIC (Mycoplasma gallisepticum) [µg/mL] | MIC (Mycoplasma hyorhinis) [µg/mL] | MIC [12] [µg/mL] | MIC [13] [µg/mL] | MIC (Staphylococcus aureus) [µg/mL] | MIC (Streptococcus sp. 80) [µg/mL] | ED50 ([14]; C203, oral) [mg/kg] | ED50 ([14]; C203, sc, subcutaneous) [mg/kg] | further results |
| --- | --- | --- | --- | --- | --- | --- | --- | --- | --- | --- | --- | --- | --- | --- | --- | --- | --- | --- | --- | --- | --- |
| CCC1OC(=O)CC(O)C(C)C(OC2OC(C)C(OC3CC(C)(O)C(O)C(C)O3)C(N(C)C)C2OC(C)=O)C(CC=O)CC(C)C(=O)C=CC(C)=CC1COC(C)=O (centres unmarked) [Compound 1, 2',23-Di-O-Acetyl-DMT] | 1 (≈ 1.21 µM) | 2 (≈ 2.42 µM) | 16 (≈ 19.4 µM) | 16 (≈ 19.4 µM) | 2 (≈ 2.42 µM) | 1 (≈ 1.21 µM) | 2 (≈ 2.42 µM) | 2 (≈ 2.42 µM) | 1 (≈ 1.21 µM) | 2 (≈ 2.42 µM) | 1 (≈ 1.21 µM) | 0.25 (≈ 0.303 µM) | 0.39 (≈ 0.472 µM) | 3.12 (≈ 3.78 µM) | 6.25 (≈ 7.57 µM) | 12.5 (≈ 15.1 µM) | 0.78 (≈ 0.944 µM) | 0.78 (≈ 0.944 µM) | 212 | > 20 |  |
| CCC(=O)OCC1C=C(C)C=CC(=O)C(C)CC(CC=O)C(OC2OC(C)C(OC3CC(C)(O)C(O)C(C)O3)C(N(C)C)C2OC(=O)CC)C(C)C(O)CC(=O)OC1CC (centres unmarked) [Compound 3, 2',23-Di-O-Propionyl-DMT] | 0.5 (≈ 0.585 µM) | 2 (≈ 2.34 µM) | 16 (≈ 18.7 µM) | 16 (≈ 18.7 µM) | 1 (≈ 1.17 µM) | 0.5 (≈ 0.585 µM) | 0.5 (≈ 0.585 µM) | 1 (≈ 1.17 µM) | 1 (≈ 1.17 µM) | 1 (≈ 1.17 µM) | 0.5 (≈ 0.585 µM) | 0.5 (≈ 0.585 µM) | 0.78 (≈ 0.913 µM) | 1.56 (≈ 1.83 µM) | 6.25 (≈ 7.32 µM) | 12.5 (≈ 14.6 µM) | 0.78 (≈ 0.913 µM) | 0.78 (≈ 0.913 µM) | 117 | > 20 | MIC (Mycoplasma synoviae): 0.195 µg/mL (≈ 0.228 µM) |
| CCC(=O)OCC1C=C(C)C=CC(=O)C(C)CC(CC=O)C(OC2OC(C)C(OC3CC(C)(O)C(O)C(C)O3)C(N(C)C)C2O)C(C)C(O)CC(=O)OC1CC (centres unmarked) [Compound 4, 23-O-Propionyl-DMT] | 0.5 (≈ 0.627 µM) | 2 (≈ 2.51 µM) | 32 (≈ 40.1 µM) | 32 (≈ 40.1 µM) | 1 (≈ 1.25 µM) | 1 (≈ 1.25 µM) | 1 (≈ 1.25 µM) | 1 (≈ 1.25 µM) | 1 (≈ 1.25 µM) | 1 (≈ 1.25 µM) | 0.5 (≈ 0.627 µM) |  | 0.39 (≈ 0.489 µM) | 3.12 (≈ 3.91 µM) | 6.25 (≈ 7.83 µM) | 25 (≈ 31.3 µM) | 0.78 (≈ 0.977 µM) | 0.39 (≈ 0.489 µM) | 300 | 13 |  |
| CCC1OC(=O)CC(O)C(C)C(OC2OC(C)C(OC3CC(C)(O)C(O)C(C)O3)C(N(C)C)C2OC(C)=O)C(CC=O)CC(C)C(=O)C=CC(C)=CC1COC(=O)Cc1cc(OC)ccc1OC (centres unmarked) [Compound 20] | 0.5 (≈ 0.52 µM) | 0.5 (≈ 0.52 µM) | 32 (≈ 33.3 µM) | 16 (≈ 16.6 µM) | 0.5 (≈ 0.52 µM) | 0.5 (≈ 0.52 µM) | 0.5 (≈ 0.52 µM) | 0.5 (≈ 0.52 µM) | 2 (≈ 2.08 µM) | 0.5 (≈ 0.52 µM) | 0.25 (≈ 0.26 µM) | 0.06 (≈ 0.0624 µM) | 0.195 (≈ 0.203 µM) | 1.56 (≈ 1.62 µM) | 12.5 (≈ 13 µM) | 25 (≈ 26 µM) | 0.78 (≈ 0.811 µM) | 0.195 (≈ 0.203 µM) |  |  | MIC (Mycoplasma synoviae): 0.39 µg/mL (≈ 0.405 µM) |
| CCC1OC(=O)CC(O)C(C)C(OC2OC(C)C(OC3CC(C)(O)C(O)C(C)O3)C(N(C)C)C2OC(C)=O)C(CC=O)CC(C)C(=O)C=CC(C)=CC1COC(=O)n1ccnc1 (centres unmarked) [Compound 21] | 2 (≈ 2.28 µM) | 2 (≈ 2.28 µM) | 16 (≈ 18.2 µM) | 8 (≈ 9.11 µM) | 1 (≈ 1.14 µM) | 1 (≈ 1.14 µM) | 2 (≈ 2.28 µM) | 2 (≈ 2.28 µM) | 1 (≈ 1.14 µM) | 2 (≈ 2.28 µM) | 0.5 (≈ 0.569 µM) | 0.125 (≈ 0.142 µM) | 0.78 (≈ 0.888 µM) | 1.56 (≈ 1.78 µM) | 12.5 (≈ 14.2 µM) | 12.5 (≈ 14.2 µM) | 6.25 (≈ 7.12 µM) | 0.78 (≈ 0.888 µM) |  |  | MIC (Mycoplasma synoviae): 0.78 µg/mL (≈ 0.888 µM) |
